# Reference: patent US7053041B1, “Methods and compositions useful for inhibition of αvβ5mediated angiogenesis” (The Scripps Research Institute, priority 1996, dated 2006)
# “Also recorded” adds a separate entry of the source. [ ]: non-standard residue; d: D form.
# Legend:
# [1] = system: VEGF-induced angiogenesis; experiment: in vivo rabbit eye model assay, VEGF-induced corneal angiogenesis
# Experimental: (§1) Hydron polymer pellets containing growth factor and monoclonal antibodies (mAbs) were prepared as described by D'Amato, et al., Proc. Natl. Acad. Sci., 91:4082–4085 (1994). […] In addition, hydron pellets were prepared which contained either 40 μg of the mAb P1F6 (anti-αvβ5) or the control antibody, LM609 (anti-αvβ3), in PBS.
# (§2) All of the mAbs tested were purified from ascites fluid using Protein-A Sepharose CL-4B affinity column chromatography according to well-known methods. The eluted immunoglobulin was then dialyzed against PBS and treated with Detoxi-gel (Pierce Chemicals, Rockford, Ill.) to remove endotoxin. […] Monoclonal antibodies were therefore tested for the presence of endotoxin with the Chromogenic Limulus Amebocyte Lysate Assay (BioWhittaker, Walkersville, Md.) and only those mAbs without detectable endotoxin were used in the rabbit eye model assay.
# (§3) Approximately 12 μl of casting material was placed into each peg and polymerized overnight in a sterile hood. Pellets were then sterilized by ultraviolet irradiation.
# A series of eight animals were used for paired eye experiments where each animal received a Hydron implant containing a preselected cytokine with a preselected antibody or control immunoglobulin. Specifically, for each rabbit, one cornea was surgically implanted with a Hydron pellet containing either bFGF or VEGF in conjunction with mAb P1F6 and the other cornea was treated with either bFGF or VEGF in conjunction with MAb LM609. […]
# (§4) The effects of specific mAb integrin immunoreactivity on the above cytokine-induced angiogenesis is also quantified as shown in FIGS. 2A and 2B. […] Photographs were recorded on Kodak Ektachrome 64T slide film and images were converted for computer-assisted quantitation using Biorad's Molecular Analyst 1.1 software after acquisition through a Model GS670 imaging densitometer. […]
# (§5) Each experiment consisted of eight rabbits in which one eye received a pellet comprising 100 nanograms (ng) bFGF and the other eye received a pellet comprising 1 microgram (ug) VEGF. […] After 7 days, the cornea were evaluated as described above.
# [2] = system: VEGF-induced angiogenesis; experiment: chick CAM assay, VEGF-induced angiogenesis, intravenous inhibitors; type: in vivo; details: for inhibition of VEGF-induced CAM angiogenesis: VEGF 150 ng/ml, 75 μg antibody or peptide intravenously, 72 hours
# Experimental: Ten day old chick embryos were obtained from McIntyre Poultry (Lakeside, Calif.) and incubated at 37C with 60% humidity. A small hole was made through the shell at the end of the egg directly over the air sac with the use of a small crafts drill (Dremel, Division of Emerson Electric Co., Racine, Wis.). A second hole was drilled on the broad side of the egg in a region devoid of embryonic blood vessels determined previously by candling the egg. […] A 1.0 centimeter (cm)×1.0 cm square window was cut through the shell over the dropped CAM with the use of a small model grinding wheel (Dremel). The small window allowed direct access to the underlying CAM.
# Angiogenesis was induced by placing a 5 millimeter (mm)×5 mm Whatman filter disk (Whatman Filter paper No. 1) saturated with Hanks Balanced Salt Solution (HBSS, GIBCO, Grand Island, N.Y.) or HBSS containing preselected cytokines at a preselected concentration, i.e. one to test the effect on angiogenesis, on the CAM of a 10 day chick embryo in a region devoid of blood vessels and the windows were later sealed with tape. Angiogenesis was monitored by photomicroscopy after 72 hours. CAMs were snap frozen then 6 μm cryostat sections were fixed with acetone and stained by immunofluorescence as described in Example 2B and 2C with 10 μg/ml of selected anti-integrin antibodies, including those directed against αvβ5 as described in Example 1.
# Angiogenesis was first induced on 10 day old chick embryos by application of growth factor-saturated filter disks. Specifically, in the first assays, angiogenesis was induced by exposure to either bFGF or VEGF, each at a concentration of 150 ng/ml.
# For application of growth factors, during the candling procedures, prominent blood vessels were selected and marks were made on the egg shell to indicate their positions. The holes were drilled in the shell, the CAMs were dropped and growth factor-saturated filter papers were then separately placed on the CAMs as described above. The windows were sealed with sterile tape and the embryos were replaced in the incubator.
# Twenty four hours later, a second small window was carefully cut on the lateral side of the egg shell directly over prominent blood vessels selected previously. The outer egg shell was carefully removed leaving the embryonic membranes intact. The shell membrane was made transparent with a small drop of mineral oil (Perkin-Elmer Corp, Norwalk, Conn.) which allowed the blood vessels to be visualized easily. Then, phosphate buffered saline (PBS), 75 μg of purified sterile anti-integrin antibodies or 75 μg of synthetic peptides (cyclic peptide RGDfV, SEQ ID NO 4 and control cyclic peptide RADfV, SEQ ID NO 5) in PBS were injected into blood vessels apparent on the growth factor-induced CAMs. The windows were sealed with tape and the embryos were allowed to incubate until 72 hours.
# The filter discs and representative surrounding CAM tissues were photographed in a stereomicroscope (FIGS. 3A–3F and FIGS. 5A–5F) and the mean angiogenic index +/− the standard error was determined for 12 CAMs per condition (FIGS. 4A–4B and FIGS. 6A–6B). Angiogenesis was scored for each embryo in a double blind manner by analyzing the number and extent of branching of blood vessels within the area of each disc. The scores ranged from 1 (low) to 4 (high) and the angiogenesis index was determined by subtracting a background of 1 from all data.
# In a further assay performed in the CAM model having VEGF-induced angiogenesis, 2 μg of peptides 85189 (SEQ ID NO 9) and the inert salt counterpart 121974 were separately intravenously injected as previously described. The effect of the peptides was assessed in comparison to that of control peptide 69601 (SEQ ID NO 5) and to untreated (labeled as NT) preparations.
# The effect of the peptides of VEGF-induced angiogenesis is measured through a determination of the number of blood vessel branch points. […]
# [3] = system: bFGF-induced angiogenesis; experiment: in vivo rabbit eye model assay, bFGF-induced corneal angiogenesis
# Experimental: as §1, §2, §3
# A series of eight animals were used for paired eye experiments where each animal received a Hydron implant containing a preselected cytokine with a preselected antibody or control immunoglobulin. Specifically, for each rabbit, one cornea was surgically implanted with a Hydron pellet containing either bFGF or VEGF in conjunction with mAb P1F6 and the other cornea was treated with either bFGF or VEGF in conjunction with MAb LM609. Individual pellets were implanted into surgically created “pockets” formed in the mid-stroma of the cornea of rabbits. The surgical procedure was done under sterile technique using a Wild model M691 operating microscope equipped with a beamsplitter to which was mounted a camera for photographically recording individual corneas. A 3 mm by 5 mm “pocket” was created in the corneal stroma by making a 3 mm incision to half the corneal thickness with a 69 Beaver blade. The stroma was dissected peripherally using an iris spatula and the pellet was implanted with its peripheral margin 2 mm from the limbus. […]
# as §4, §5
Molecule,"corneal blood vessel growth at 7 days, VEGF-stimulated eyes ([1]; peptide s.q. 50 ug per kg initial, 20 ug/kg daily, 1 ug VEGF pellet)",inhibition of VEGF-induced CAM angiogenesis [2],"corneal blood vessel growth at 7 days, bFGF-stimulated eyes ([3]; peptide s.q. 50 ug per kg initial, 20 ug/kg daily, 100 ng bFGF pellet)","inhibition of corneal blood vessel growth ([1]; peptide s.q. 50 ug per kg initial, 20 ug/kg daily, 7 days, 1 ug VEGF pellet) [%]",inhibition of VEGF-induced CAM angiogenesis (number of blood vessel branch points) ([2]; 2 μg peptide intravenously),"amount of corneal blood vessel growth compared to controls ([3]; peptide s.q. 50 ug per kg initial, 20 ug/kg daily, 7 days, 100 ng bFGF pellet)","inhibition of VEGF-induced corneal angiogenesis ([1]; Hydron pellet with 750 ng VEGF and 40 μg mAb, postoperative day 10)","effect on CAM angiogenesis induced by VEGF (angiogenesis index) ([2]; VEGF 1.0 μg/ml, antibodies 75 μg per embryo, calphostin C 100 nM)","reduction of bFGF-induced angiogenesis (mean neovascular area) ([3]; 40 μg mAb in pellet, compared to paired eye treated with P1F6, p<0.005) [%]","inhibition of bFGF-induced corneal angiogenesis ([3]; Hydron pellet with 750 ng bFGF and 40 μg mAb, postoperative day 10)"
"cyclo(Arg-Ala-Asp-D-Phe-Val) (cyclo(RAD[dF]V); SMILES CC(C)[C@@H]1NC(=O)[C@@H](Cc2ccccc2)NC(=O)[C@H](CC(=O)O)NC(=O)[C@H](C)NC(=O)[C@H](CCCNC(=N)N)NC1=O) [peptide 69601, reference compound]",substantial corneal blood vessel growth,did not effect angiogenesis,substantial corneal blood vessel growth,,,,,,,
cyclo(Arg-Gly-Asp-D-Phe-NMeVal) [peptide 85189],,,,~100,completely inhibited angiogenesis,less than 50%,,,,
"LM609: mouse monoclonal antibody, anti-αvβ3 (antibody, V domains shown) VH: EVQLEESGGGLVKPGGSLKLSCAASGFAFSSYDMSWVRQIPEKRLEWVAKVSSGGGSTYYLDTVQGRFTISRDNAKNTLYLQMSSLNSEDTAMYYCARHNYGSFAYWGQGTLVTVSA VL: ELVMTQTPATLSVTPGDSVSLSCRASQSISNHLHWYQQKSHESPRLLIKYASQSISGIPSRFSGSGSGTDFTLSINSVETEDFGMYFCQQSNSWPHTFGGGTKLEIKRA",,little effect on angiogenesis,,,,,not effective at inhibiting VEGF-induced angiogenesis; also recorded: minimal effect on VEGF-induced angiogenesis,failed to do so,86,inhibited
